According to patent publication US20230219904A1 (SYNGENTA CROP PROTECTION AG, priority 2020, published 2023):

Columns and labels:
Format in all cases: in vivo
[1] = tested on: Abutilon theophrasti (ABUTH); assay: Pre-emergence herbicidal glasshouse test (Table B1); settings: applied at 500 g/h, evaluated after 13 days
Procedure, shortened: (§1)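 In this pot assay, seedlings or sown soil receive a spray of formulated active ingredient (acetone/water 50:50, 0.5% Tween 20) at 500 g/h unless indicated. Conditions: 24/16° C day/night, 14 hours light, 65% humidity, watering twice daily. Injury is scored after 13 days, 1 (0-19%) to 5 (80-100%).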

[2] = tested on: Amaranthus retoflexus (AMARE); assay: as above; settings: applied at 500 g/h, evaluated after 13 days
Procedure, shortened: as §1

[3] = tested on: Echinochloa crus-galh (ECHCG); assay: as above; settings: applied at 500 g/h, evaluated after 13 days
Procedure, shortened: as §1

[4] = tested on: Ipomoea hederacea (IPOHE); assay: as above; settings: applied, evaluated after 13 days
Procedure, shortened: as §1

Setaria faberi (SETFA) [5] = assay: as above; settings: applied at 500 g/h, evaluated after 13 days
Procedure, shortened: as §1

[6] = tested on: Abutilon theophrasti (ABUTH); assay: Post-emergence herbicidal glasshouse test (Table B1); settings: applied at 500 g/h, evaluated after 13 days
Procedure, shortened: as §1

[7] = tested on: Amaranthus retoflexus (AMARE); assay: as above; settings: applied at 500 g/h, evaluated after 13 days
Procedure, shortened: as §1

[8] = tested on: Echinochloa crus-galh (ECHCG); assay: as above; settings: applied at 500 g/h, evaluated after 13 days
Procedure, shortened: as §1

[9] = tested on: Ipomoea hederacea (IPOHE); assay: as above; settings: applied at 500 g/h, evaluated after 13 days
Procedure, shortened: as §1

Setaria faberi (SETFA) [10] = assay: as above; settings: applied at 500 g/h, evaluated after 13 days
Procedure, shortened: as §1

[11] = tested on: ABUTH (Abutilon theophrasti); assay: Comparative test, PRE application (Table B2); settings: evaluated after 14 days
Procedure: (§2) TABLE B2—COMPARATIVE TEST
(§3) Seeds of test species were sown in standard soil in pots. After cultivation for one day under controlled conditions in a glasshouse (at 24/16° C., day/night; 14 hours light; 65% humidity), the plants were sprayed with an aqueous spray solution derived from the formulation of the technical active ingredient in 0.6 ml acetone and 45 ml formulation solution containing 10.6% Emulsogen EL (Registry number 61791-12-6), 42.2% N-methyl pyrrolidone, 42.2% dipropylene glycol monomethyl ether (CAS RN 34590-94-8) and 0.2% X-77 (CAS RN 11097-66-8). The test plants were then grown in a glasshouse under controlled conditions in a glasshouse (at 24/16° C., day/night; 14 hours light; 65% humidity) and watered twice daily. After 14 days, the test was evaluated (100=total damage to plant; 0=no damage to plant).
(§4) Test species: ABUTH (Abutilon theophrasti); BRO′I′L (Bromus tectorum); ECHCG (Echinochloa crus-galli); SINAR (Sinapis arvensis).

BROTE (Bromus tectorum) = assay: Comparative test, PRE application (Table B2); settings: evaluated after 14 days
Procedure: as §2, §3, §4

[12] = tested on: ECHCG (Echinochloa crus-galli); assay: Comparative test, PRE application (Table B2); settings: evaluated after 14 days
Procedure: as §2, §3, §4

SINAR (Sinapis arvensis) = assay: Comparative test, PRE application (Table B2); settings: evaluated after 14 days
Procedure: as §2, §3, §4

Question: With `CC(=O)Nc1c(OC(F)(F)F)ccc(C(=O)Nc2nnnn2C)c1Cl` [Compound 1.002] as the compound, how does the “PRE Application ABUTH, percentage damage on five-point scale” value [1] read?
Answer: The value was 5 (5=80-100%).

Question: And the “PRE Application AMARE, percentage damage on five-point scale” value [2]?
Answer: Its value is 5 (5=80-100%).

Question: And the “PRE Application ECHCG, percentage damage on five-point scale” value [3]?
Answer: Its value is 5 (5=80-100%).

Question: What about the “PRE Application IPOHE, percentage damage on five-point scale” value [4] of the same compound?
Answer: The value was 1 (1=0-19%).

Question: And the “PRE Application SETFA, percentage damage on five-point scale” value (Setaria faberi (SETFA) [5])?
Answer: Its value is 2 (2=20-39%).

Question: What about the “POST Application ABUTH, percentage damage on five-point scale” value [6] of the same compound?
Answer: Its value is 5 (5=80-100%).

Question: What about the “POST Application AMARE, percentage damage on five-point scale” value [7] of the same compound?
Answer: The value was 5 (5=80-100%).

Question: What about the “POST Application ECHCG, percentage damage on five-point scale” value [8] of the same compound?
Answer: Its value is 5 (5=80-100%).

Question: And the “POST Application IPOHE, percentage damage on five-point scale” value [9]?
Answer: Its value is 5 (5=80-100%).

Question: What about the “POST Application SETFA, percentage damage on five-point scale” value (Setaria faberi (SETFA) [10]) of the same compound?
Answer: Its value is 5 (5=80-100%).

Question: And the “damage to plant ABUTH (100=total damage to plant; 0=no damage to plant)” value ([11]; 30 g/ha)?
Answer: The value was 0.

Question: And the “damage to plant ABUTH (100=total damage to plant; 0=no damage to plant)” value ([11]; 130 g/ha)?
Answer: Its value is 10.

Question: What about the “damage to plant ABUTH (100=total damage to plant; 0=no damage to plant)” value ([11]; 250 g/ha) of the same compound?
Answer: Its value is 80.

Question: And the “damage to plant BROTE (100=total damage to plant; 0=no damage to plant)” value (BROTE (Bromus tectorum); 30 g/ha)?
Answer: The value was 0.

Question: And the “damage to plant BROTE (100=total damage to plant; 0=no damage to plant)” value (BROTE (Bromus tectorum); 130 g/ha)?
Answer: Its value is 10.

Question: And the “damage to plant BROTE (100=total damage to plant; 0=no damage to plant)” value (BROTE (Bromus tectorum); 250 g/ha)?
Answer: Its value is 70.

Question: And the “damage to plant ECHCG (100=total damage to plant; 0=no damage to plant)” value ([12]; 30 g/ha)?
Answer: The value was 20.

Question: And the “damage to plant ECHCG (100=total damage to plant; 0=no damage to plant)” value ([12]; 130 g/ha)?
Answer: The value was 30.

Question: And the “damage to plant ECHCG (100=total damage to plant; 0=no damage to plant)” value ([12]; 250 g/ha)?
Answer: Its value is 80.

Question: And the “damage to plant SINAR (100=total damage to plant; 0=no damage to plant)” value (SINAR (Sinapis arvensis); 30 g/ha)?
Answer: The value was 10.

Question: What about the “damage to plant SINAR (100=total damage to plant; 0=no damage to plant)” value (SINAR (Sinapis arvensis); 130 g/ha) of the same compound?
Answer: The value was 30.

Question: What about the “damage to plant SINAR (100=total damage to plant; 0=no damage to plant)” value (SINAR (Sinapis arvensis); 250 g/ha) of the same compound?
Answer: Its value is 80.
